Laboratory results from PMC1874649 (Nucleic Acids Research, 2007).

System: cyclin B1
Format: cell-based
Details: complexed with Pep-3, 2 µM, HeLa cells

control HypNA-pPNA sequence harbouring two mutations: sequence derived from Cyc-B1a harbouring two mismatches, TGC CAT CAG GCT TAG AGG (antisense TGCCATCAGGCTTAGAGG; HypNA-pPNA backbone (hydroxyproline/phosphono PNA), pattern not given here)
effect on cyclin B1 protein levels (control): no effect
